Patent publication US7393834B2, “LHRH-antagonists in the treatment of fertility disorders” (AEterna Zentaris GmbH, priority 1996, dated 2008)
Entries after “also recorded” stand apart in the source; their conditions may differ. Where a SMILES comes first, the peptide text is derived from it. [ ]: non-standard residue; d: D form. dPhe(4-Cl) = N[C@H](Cc1ccc(Cl)cc1)C(=O)O; d2Nal = N[C@H](Cc1ccc2ccccc2c1)C(=O)O; dCit = NC(=O)NCCC[C@@H](N)C(=O)O; d3Pal = N[C@H](Cc1cccnc1)C(=O)O

Columns and labels:
premature LH surges = details: short term treatment, first clinical trials; cited from earlier work
[1] = tested on: follicular growth / pituitary; experiment: Animal experiments and clinical studies with Cetrorelix in normal, unstimulated cycles; assay type: in vivo
Description: These low dosage levels present new possibilities for manipulating the time of ovulation during a normal, not exogenous gonadotropin-stimulated cycle, without affecting the viability of the growing follicle. In case of inadequate follicular growth related to treatment with LHRH-antagonists, low dose and short term administration of gonadotrophin or other trophic compounds will compensate for these effects. Subsequently, by stopping the LHRH-antagonist treatment, it is possible to let the normal ovulation occur or to induce ovulation by exogenous manipulation, if necessary. Ovulation induction was induced by the administration of standard HCG or by administration of LHRH and/or LHRH agonistic analogs. These described treatment alternatives are a departure from existing protocols, since they are possible only if preceded by treatment for LH-surge-control with an LHRH-antagonist. In animal and clinical studies with Cetrorelix it was shown that the responsiveness of the pituitary to LHRH or agonistic analogs is preserved under these conditions of treatment. Without this treatment, the pituitary cannot respond after agonistic pretreatment for LH-surge control due to receptor down-regulation. In addition, the possible use of ovulation inducing agents other than HCG results in a-reduced incidence of ovarian hyperstimulation syndrome.

premature LH surge = experiment: Phase II clinical trial of Cetrorelix in controlled ovarian stimulation (COS/ART); assay type: in vivo, human; details: for babies born by the end of May 1996: by end of May 1996; for minimal effective dose, Dose/Day / no effect dose, Dose/Day: phase II dose finding
Method: The results of a phase II clinical trial are shown in Table I. A total of […] patients were treated.
During multiple dosing, the mean days of Cetrorelix application is 6 days. 25 babies were born by the end of May 1996 (7 following multiple doses; 18 following single/dual doses).
The hormone levels of luteinizing hormone (LH) (μg/l) (∘), follicular stimulating hormone (FSH) (μg/l) (+), progesterone (μg/l) (●), and oestradiol (E2) (ng/l) (▾) were measured in patient number 21L07 at time intervals one month (Nov. 10, 1995) and four consecutive days before (Dec. 05, 1995-Dec. 09, 1995) a dual dose regimen of Cetrorelix (3 mg) was administered subcutaneously on Dec. 10, 1995 and Dec. 11, 1995. The patient's LH, FSH, progesterone and oestradiol levels were measured afterward between Dec. 11, 1995 and Dec. 14, 1995 wherein ovulation in the patient was induced with human chorionic gonadotrophin (HCG) on Dec. 14, 1995. The patients LH, FSH, progesterone, and oestradiol levels were also measured after HCG treatment through ovum pick up (OPU; Dec. 16, 1995), and embryo transfer (ET) on […]. Hormone levels were also measured on the 4th and (Dec. 22, 1995) and 16th day after ET(Jan. 3,1996).
238 patients were treated with Cetrorelix by subcutaneous injection of Cetrorelix Acetat-Lyophilisat.
134 patients were treated with multiple doses and 104 patients with single or dual doses. The multiple doses are 0.25 mg/day or higher. […]

[2] = tested on: controlled ovarian stimulation (COS); experiment: Combination of Cetrorelix, clomifen citrate and gonadotrophins for hormonal stimulation for IVF/ICSI; assay type: in vivo, human; details: for fertilization rates: ICSI
Method: Combination of the GnRH antagonist Cetrorelix, clomifen citrate(CC) and gonadotrophins for hormonal stimulation for IVF/ICSI. New controlled ovarian stimulation (COS) protocols become possible, which combine the advantages of clomifen citrate/gonadotrophin stimulation and pituitary suppression with Cetrorelix. COS was started on day 2 after spontaneous menstrual bleeding using 100 mg CC per day for 5 or 7 days. The antagonist Cetrorelix (0.25 mg s.c.) was given starting on stimulation day 6 combined with either urinary hMG or recombinant FSH (3 ampoules/d) in a prospective randomized way. After two days of gonadotrophin injection, the dose was individualized. Human chorionic gonadotropin was given for ovulation induction, if at least 3 follicles were ≧17 mm in diameter. In total, 30 patients were included in the study. 15 were randomized in each group. Intra cytoplasmatic sperm injection (ICSI) was applied in each case.

[3] = all phase II patients, both regimens
[4] = single patient, dual dose regimen of 3 mg s.c.

CC(=O)N[C@H](Cc1ccc2ccccc2c1)C(=O)N[C@H](Cc1ccc(Cl)cc1)C(=O)N[C@H](Cc1cccnc1)C(=O)N[C@@H](CO)C(=O)N[C@@H](Cc1ccc(O)cc1)C(=O)N[C@H](CCCNC(N)=O)C(=O)N[C@@H](CC(C)C)C(=O)N[C@@H](CCCNC(=N)N)C(=O)N1CCC[C@H]1C(=O)N[C@H](C)C(N)=O [Cetrorelix] (Ac-[d2Nal][dPhe(4-Cl)][d3Pal]SY[dCit]LRP[dA]-NH2)
premature LH surges during stimulated cycles (premature LH surges): complete avoidance of premature LH surges
normal, unstimulated follicular growth ([1]; multiple or single injections, extremely low dosage levels): arrest of the normal, unstimulated follicular growth
responsiveness of the pituitary to LHRH or agonistic analogs ([1]; under LH-surge-control treatment with the antagonist): preserved
fertilization rates, follicle and oocytes quality (premature LH surge; after both posologies (single and multiple dose)): good fertilization rates
pregnancy rates (premature LH surge; after both treatments (single and multiple dose)): good
babies born by the end of May 1996 (premature LH surge; all patients): 25
pregnancies obtained (number) (premature LH surge; [3]): 71 pregnancies
pregnancies obtained (rate) (premature LH surge; [3]): 30%
babies born (premature LH surge; following multiple doses): 15
babies born by the end of May 1996 (premature LH surge; following multiple doses): 7
babies born (premature LH surge; following single/dual doses): 29
babies born by the end of May 1996 (premature LH surge; following single/dual doses): 18
pregnancies (rate) (premature LH surge; multiple dose regimen, 134 patients): 28.4%
pregnancies (number) (premature LH surge; multiple dose regimen, of 134 patients): 38
minimal effective dose, Dose/Day (premature LH surge; multiple dose, 3-7/14 days): 0.25 min. effect, dose mg
no effect dose, Dose/Day (premature LH surge; multiple dose, 3-7/14 days): 0.10 no effect. dose mg
premature LH surge (premature LH surge; patients undergoing COS/ART, multiple doses of 0.25 mg or higher or single dose of 3 mg or higher, s.c.): prevention of any premature LH surge; also recorded: No premature LH surge
minimal effective dose, Dose/Day (premature LH surge; single dose (1 day)): 3 min. effective dose mg
no effect dose, Dose/Day (premature LH surge; single dose (1 day)): 2 no effect. Dose mg
duration of effect to prevent a premature LH surge (premature LH surge; single dose regimen, one injection of 3 mg): up to 6.5 days
FSH secretion (FIG. 1) (premature LH surge; [4]): maintained at a natural level
individual estrogen development (FIG. 1) (premature LH surge; [4]): not affected
premature LH surge (FIG. 1) (premature LH surge; [4]): absolute prevention of any premature LH surge
pregnancies (rate) (premature LH surge; single/dual dosage regimen, 104 patients): 31.7%
pregnancies (number) (premature LH surge; single/dual dosage regimen, of 104 patients): 33
ovarian hyperstimulation syndrome (OHSS) ([2]; 30 patients, both groups): no case of OHSS was observed
clinical pregnancy rate/transfer ([2]; hMG group): 4/14
metaphase II oocytes ([2]; hMG group): 74%
oocytes per cycle retrieved ([2]; hMG group): 7.7±3.8
transfer rate/cycle ([2]; hMG group): 87%
fertilization rates ([2]; hMG group): 42%
clinical pregnancy rate/transfer ([2]; recombinant FSH group): 1/11
metaphase II oocytes ([2]; recombinant FSH group): 80%
oocytes per cycle retrieved ([2]; recombinant FSH group): 6.4±2.6
transfer rate/cycle ([2]; recombinant FSH group): 80%
fertilization rates ([2]; recombinant FSH group): 53%
